# Experimental data published in patent US20200361895A1, “NOVEL SULFONAMIDE CARBOXAMIDE COMPOUNDS” (Inflazome Limited, priority 2017, published 2020).
# Structures can show the parent of a compound that is named as a salt.
# Target: NLRP3 (Homo sapiens, UniProt Q96P20)
# Test: THP-1 cells pyroptosis assay (LPS + nigericin, resazurin readout; THP IC50)
# Assay type: cell-based
# Design: Seed THP-1 cells (25,000 cells/well) containing 1.0 μg/ml LPS in 40 μl of RPMI medium; host or cells: THP-1 cells
# Experimental: THP-1 cells (ATCC #TIB-202) were grown in RPMI containing L-glutamine (Gibco #11835) supplemented with 1 mM sodium pyruvate (Sigma #S8636) and penicillin (100 units/ml)/streptomycin (0.1 mg/ml) (Sigma #P4333) in 10% Fetal Bovine Serum (FBS) (Sigma #F0804). The cells were routinely passaged and grown to confluency (˜10^6 cells/ml). On the day of the experiment, THP-1 cells were harvested and resuspended into RPMI medium (without FBS). The cells were then counted and viability (>90%) checked by Trypan blue (Sigma #T8154). Appropriate dilutions were made to give a concentration of 625,000 cells/ml. To this diluted cell solution was added LPS (Sigma #L4524) to give a 1 μg/ml Final Assay Concentration (FAC). 40 μl of the final preparation was aliquoted into each well of a 96-well plate. The plate thus prepared was used for compound screening.
# The following method step-by-step assay was followed for compound screening. • 1. Seed THP-1 cells (25,000 cells/well) containing 1.0 μg/ml LPS in 40 μl of RPMI medium (without FBS) in 96-well, black walled, clear bottom cell culture plates coated with poly-D-lysine (VWR #734-0317) • 2. Add 5 μcompound (8 points half-log dilution, with 10 μM top dose) or vehicle (DMSO 0.1% FAC) to the appropriate wells • 3. Incubate for 3 hrs at 37° C. and 5% CO2 • 4. Add 5 μnigericin (Sigma #N7143) (FAC 5 μM) to all wells • 5. Incubate for 1 hr at 37° C. and 5% CO2 • 6. At the end of the incubation period, spin plates at 300×g for 3 mins and remove supernatant • 7. Then add 50 μl of resazurin (Sigma #R7017) (FAC 100 μM resazurin in RPMI medium without FBS) and incubate plates for a further 1-2 hrs at 37° C. and 5% CO2 • 8. Plates were read in an Envision reader at Ex 560 nm and Em 590 nm • 9. IC50 data is fitted to a non-linear regression equation (log inhibitor vs response-variable slope 4-parameters)
# Sequence of NLRP3 (Q96P20 whole entry): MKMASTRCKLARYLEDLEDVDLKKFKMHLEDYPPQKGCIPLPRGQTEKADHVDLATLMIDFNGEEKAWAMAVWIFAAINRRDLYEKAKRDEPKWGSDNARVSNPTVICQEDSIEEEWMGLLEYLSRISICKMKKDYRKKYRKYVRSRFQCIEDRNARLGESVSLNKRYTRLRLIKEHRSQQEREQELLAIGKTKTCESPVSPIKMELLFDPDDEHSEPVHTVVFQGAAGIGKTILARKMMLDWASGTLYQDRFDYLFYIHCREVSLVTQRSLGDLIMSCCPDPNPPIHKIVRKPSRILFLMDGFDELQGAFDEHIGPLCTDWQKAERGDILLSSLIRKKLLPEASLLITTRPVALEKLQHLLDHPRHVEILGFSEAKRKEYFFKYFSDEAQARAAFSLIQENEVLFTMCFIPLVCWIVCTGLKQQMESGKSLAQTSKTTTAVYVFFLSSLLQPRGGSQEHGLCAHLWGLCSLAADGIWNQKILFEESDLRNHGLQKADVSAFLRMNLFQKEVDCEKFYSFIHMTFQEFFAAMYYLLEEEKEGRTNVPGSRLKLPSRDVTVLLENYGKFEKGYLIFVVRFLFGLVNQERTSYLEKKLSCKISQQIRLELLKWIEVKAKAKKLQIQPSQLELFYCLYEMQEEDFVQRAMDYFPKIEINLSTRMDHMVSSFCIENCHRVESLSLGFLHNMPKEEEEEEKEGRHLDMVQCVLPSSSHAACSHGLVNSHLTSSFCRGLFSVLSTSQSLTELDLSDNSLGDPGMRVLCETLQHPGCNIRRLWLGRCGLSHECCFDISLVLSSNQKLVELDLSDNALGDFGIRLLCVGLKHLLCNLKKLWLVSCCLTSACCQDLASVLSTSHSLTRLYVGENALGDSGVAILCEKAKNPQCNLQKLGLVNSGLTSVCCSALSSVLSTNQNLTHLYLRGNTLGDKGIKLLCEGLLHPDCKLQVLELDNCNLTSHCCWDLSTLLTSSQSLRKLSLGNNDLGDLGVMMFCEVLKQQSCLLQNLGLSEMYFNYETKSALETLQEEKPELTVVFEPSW
row,Compound,IC50 [µM]
1,"CC(C)c1cc(F)cc(-c2ccnc(C#N)c2)c1NC(=O)NS(=O)(=O)C1CN(C(C)C)C1 [Example 74, N-((2-(2-Cyanopyridin-4-yl)-4-fluoro-6-isopropylphenyl)carbamoyl)-1-isopropylazetidine-3-sulfonamide]",≤ 10
2,"COc1cc(-c2cc(F)cc(C(C)C)c2NC(=O)NS(=O)(=O)C2CN(C(C)C)C2)ccn1 [Example 75, N-((4-Fluoro-2-isopropyl-6-(2-methoxypyridin-4-yl)phenyl)carbamoyl)-1-isopropylazetidine-3-sulfonamide]",≤ 0.5
3,"CC(C)c1cc(F)cc(-c2ccnc(C#N)c2)c1NC(=O)NS(=O)(=O)C1CN(C2CCC2)C1 [Example 78, N-((2-(2-Cyanopyridin-4-yl)-4-fluoro-6-isopropylphenyl)carbamoyl)-1-cyclobutylazetidine-3-sulfonamide]",≤ 10
4,"COc1cc(-c2cc(F)cc(C(C)C)c2NC(=O)NS(=O)(=O)C2CN(C3CCC3)C2)ccn1 [Example 79, 1-Cyclobutyl-N-((4-fluoro-2-isopropyl-6-(2-methoxypyridin-4-yl)phenyl)carbamoyl)azetidine-3-sulfonamide]",≤ 0.5
5,"COc1cc(-c2ccc3c(c2NC(=O)NS(=O)(=O)C2CN(C4CCC4)C2)CCC3)ccn1 [Example 80, 1-Cyclobutyl-N-((5-(2-methoxypyridin-4-yl)-2,3-dihydro-1H-inden-4-yl)carbamoyl)azetidine-3-sulfonamide]",≤ 0.5
6,"CCN1CC(S(=O)(=O)NC(=O)Nc2c(-c3ccnc(C#N)c3)cc(F)cc2C(C)C)C1 [Example 82, N-((2-(2-Cyanopyridin-4-yl)-4-fluoro-6-isopropylphenyl)carbamoyl)-1-ethylazetidine-3-sulfonamide]",≤ 10
7,"CCN1CC(S(=O)(=O)NC(=O)Nc2c(-c3ccncc3)cc(F)c3c2CCC3)C1 [Example 85, 1-Ethyl-N-((7-fluoro-5(pyridin-4-yl)-2,3-dihydro-1H-inden-4-yl)carbamoyl)azetidine-3-sulfonamide]",≤ 1
8,"CC(C)c1cc(F)cc(-c2ccnc(C#N)c2)c1NC(=O)NS(=O)(=O)C1CN(Cc2cccnc2)C1 [Example 86, N-((2-(2-Cyanopyridin-4-yl)-4-fluoro-6-isopropylphenyl)carbamoyl)-1-(pyridin-3-ylmethyl)azetidine-3-sulfonamide]",≤ 10
9,"O=C(Nc1c(-c2ccncc2)cc(F)c2c1CCC2)NS(=O)(=O)C1CN(Cc2cccnc2)C1 [Example 88, N-((7-Fluoro-5-(pyridin-4-yl)-2,3-dihydro-1H-inden-4-yl)carbamoyl)-1-(pyridin-3-ylmethyl)azetidine-3-sulfonamide]",≤ 1
10,"CC(C)c1cc(F)cc(-c2ccnc(C#N)c2)c1NC(=O)NS(=O)(=O)c1ccc(=O)n(C(C)C)c1 [Example 89, N-((2-(2-cyanopyridin-4-yl)-4-fluoro-6-isopropylphenyl)carbamoyl)-1-isopropyl-6-oxo-1,6-dihydropyridine-3-sulfonamide]",≤ 0.5
11,"COc1cc(-c2cc(F)cc(C(C)C)c2NC(=O)NS(=O)(=O)c2ccc(=O)n(C(C)C)c2)ccn1 [Example 90, N-((4-Fluoro-2-isopropyl-6-(2-methoxypyridin-4-yl)phenyl)carbamoyl)-1-isopropyl-6-oxo-1,6-dihydropyridine-3-sulfonamide]",≤ 0.5
12,"CCN1CCC(S(=O)(=O)NC(=O)Nc2c(-c3ccnc(OC)c3)cc(F)c3c2CCC3)CC1 [Example 97, 1-Ethyl-N-((7-fluoro-5-(2-methoxypyridin-4-yl)-2,3-dihydro-1H-inden-4-yl)carbamoyl)piperidine-4-sulfonamide, potassium salt]",≤ 5

# Second part, the compound after the results:
row,IC50 [µM],Compound
1,≤ 10,"CC(C)c1cc(F)cc(-c2cccnc2)c1NC(=O)NS(=O)(=O)C1CCN(C(C)C)CC1 [Example 93, N-((4-Fluoro-2-isopropyl-6-(pyridin-3-yl)phenyl)carbamoyl)-1-isopropylpiperidine-4-sulfonamide]"
2,≤ 10,"CCN1CCC(S(=O)(=O)NC(=O)Nc2c(-c3ccnc(C#N)c3)ccc3c2CCC3)CC1 [Example 99, N-((5-(2-Cyanopyridin-4-yl)-2,3-dihydro-1H-inden-4-yl)carbamoyl)-1-ethylpiperidine-4-sulfonamide, potassium salt]"
3,≤ 5,"CCN1CCC(S(=O)(=O)NC(=O)Nc2c(-c3ccnc(OC)c3)cc(F)cc2C(C)C)CC1 [Example 100, 1-Ethyl-N-((4-fluoro-2-isopropyl-6-(2-methoxypyridin-4-yl)phenyl)carbamoyl)piperidine-4-sulfonamide, potassium salt]"
4,≤ 0.5,"CC(C)c1cc(F)cc(-c2ccnc(C#N)c2)c1NC(=O)NS(=O)(=O)c1cncc(N(C)C)n1 [Example 102, N-((2-(2-Cyanopyridin-4-yl)-4-fluoro-6-isopropylphenyl)carbamoyl)-6-(dimethylamino)pyrazine-2-sulfonamide]"
5,≤ 0.5,"COc1cc(-c2cc(F)cc(C(C)C)c2NC(=O)NS(=O)(=O)c2cnc(N(C)C)cn2)ccn1 [Example 107, 5-(Dimethylamino)-N-((4-fluoro-2-isopropyl-6-(2-methoxypyridin-4-yl)phenyl)carbamoyl)pyrazine-2-sulfonamide]"
6,≤ 10,"CC(C)c1cc(F)cc(-c2ccnc(C#N)c2)c1NC(=O)NS(=O)(=O)c1nccnc1C(F)F [Example 110, N-((2-(2-Cyanopyridin-4-yl)-4-fluoro-6-isopropylphenyl)carbamoyl)-3-(difluoromethyl)pyrazine-2-sulfonamide]"
7,≤ 5,"COc1cc(-c2cc(F)cc(C(C)C)c2NC(=O)NS(=O)(=O)c2nccnc2C(F)F)ccn1 [Example 111, 3-(Difluoromethyl)-N-((4-fluoro-2-isopropyl-6-(2-methoxypyridin-4-yl)phenyl)carbamoyl)pyrazine-2-sulfonamide]"
8,≤ 1,"COc1cc(-c2ccc3c(c2NC(=O)NS(=O)(=O)c2nccnc2C(F)F)CCC3)ccn1 [Example 112, 3-(Difluoromethyl)-N-((5-(2-methoxypyridin-4-yl)-2,3-dihydro-1H-inden-4-yl)carbamoyl)pyrazine-2-sulfonamide]"
9,≤ 5,"O=C(Nc1c(-c2ccncc2)cc(F)c2c1CCC2)NS(=O)(=O)c1nccnc1C(F)F [Example 113, 3-(Difluoromethyl)-N-((7-fluoro-5-(pyridin-4-yl)-2,3-dihydro-1H-inden-4-yl)carbamoyl)pyrazine-2-sulfonamide]"
10,≤ 0.5,"COc1cc(-c2cc(F)cc(C(C)C)c2NC(=O)NS(=O)(=O)c2nc(C)cc(C)n2)ccn1 [Example 115, N-((4-Fluoro-2-isopropyl-6-(2-methoxypyridin-4-yl)phenyl)carbamoyl)-4,6-dimethylpyrimidine-2-sulfonamide]"
11,≤ 10,"CC(C)c1cc(F)cc(-c2ccnc(C#N)c2)c1NC(=O)NS(=O)(=O)Cc1ccccc1 [Example 127, N-((2-(2-Cyanopyridin-4-yl)-4-fluoro-6-isopropylphenyl)carbamoyl)-1-phenylmethanesulfonamide]"
12,≤ 1,"COc1cc(-c2cc(F)cc(C(C)C)c2NC(=O)NS(=O)(=O)Cc2ccccc2)ccn1 [Example 128, N-((4-Fluoro-2-isopropyl-6-(2-methoxypyridin-4-yl)phenyl)carbamoyl)-1-phenylmethanesulfonamide]"
13,≤ 5,"COc1cc(-c2ccc3c(c2NC(=O)NS(=O)(=O)Cc2ccccc2)CCC3)ccn1 [Example 129, N-((5-(2-Methoxypyridin-4-yl)-2,3-dihydro-1H-inden-4-yl)carbamoyl)-1-phenylmethanesulfonamide]"
